Data as given in patent US11401277B2, “Anti-bacterial heterocyclic compounds and their synthesis” (Bugworks Research, Inc., priority 2017, dated 2022).
In brackets after ≈: the same amount, converted by molar mass. Several values for one entry are separate records, joined by “and”; a condition that tells them apart may be missing. Identical values can stand only once. Like-named read-outs stand apart in the source and are kept apart here.

Assays:
[1] = Stability of IV formulation at room temperature; assay type: physicochemical; conditions: 10% L-ascorbic acid formulation
[2] = tested on: K. pneumoniae [ATCC13883]; test: Neutropenic Thigh Infection Model in Rat, K. pneumoniae; assay type: in vivo; conditions: for MEAN ± SD (Log10 CFU/g thigh) / Mean Log 10 CFU/thigh reduction (wrt 2 h PI control: 5.04 Log10CFU/g thigh) / Log10 CFU/g thigh: i.v., 1 h infusion; for Log10 CFU/g thigh: individual animals, 10 hr post infection
[3] = tested on: Morganella morganii ATCC 25830; test: MIC studies in LB Media; assay type: cell-based; conditions: ATCC25830, read-out: Minimum Inhibitory Concentration in LB Media, M. mo
E. faecalis ATCC 29212 = test: MIC studies in LB Media; assay type: cell-based; conditions: Enterococcus faecalis, ATCC29212, read-out: Minimum Inhibitory Concentration in LB Media, E. fa
[4] = tested on: Enterobacter cloacae ATCC 13047; test: MIC studies in LB Media; assay type: cell-based; conditions: ATCC13047, read-out: Minimum Inhibitory Concentration in LB Media, E. cl
[5] = tested on: P. aurigenosa clinical strains; test: Susceptibility (MIC50 and MIC90 determination) studies, clinical strains; assay type: cell-based; conditions: CLSI
E. coli clinical strains = test: as above; assay type: cell-based; conditions: CLSI
[6] = tested on: P. aeruginosa [ATCC27853]; test: Neutropenic Lung Infection Model in Rat; assay type: in vivo; conditions: for MEAN ± SD (Log10 CFU/g Lung) / Mean Log 10 CFU/g lung reduction (wrt 4 h PI control: 6.52 Log10CFU/g lung) / Log10 CFU/g Lung: i.v., 1 h infusion; for Log10 CFU/g Lung: individual animals, 24 h post infection
Description: Animals were placed into an induction chamber and anaesthesia was induced by exposing the animals to 3-5% Isoflurane in an oxygen flow set at approximately (˜) 1 liter per minute (LPM). […] A gentle mixing of inoculum between two animals was followed for uniform distribution.
Meropenem was formulated in saline.
Entire Lung was aseptically isolated, weighed and placed into 1 mL of sterile CSDB broth, and homogenized (Omni Tip (220 V hand held)). Serial ten-fold dilutions of the lungs homogenates were prepared in sterile CSD broth and 0.05 mL of four dilutions for each tissue was plated onto CSDA agar plates. Bacterial colonies were enumerated following overnight incubation at 37° C. Bacterial densities were estimated as Log10 CFU/g lung. The Mean±SD Log10 CFU/g lung was estimated in each group.

E. coli topoisomerase IV = E. coli topoisomerase IV (Escherichia coli, UniProt P0AFI2+P20083); test: biochemical
[7] = tested on: clinical strains of five Gram-negative bacterial species; test: Antibacterial susceptibility studies, overall statement; assay type: cell-based; conditions: range over 5 Gram-negative species
Text: The standard drugs ciprofloxacin and meropenem were used as positive controls in the study.

hERG potassium channel = molecular target: T1, hERG potassium channel (Homo sapiens, UniProt Q12809); test: hERG inhibition assay, QPatch HTX automated electrophysiology; assay type: cell-based; conditions: CHO cell line expressing hERG; whole-cell patch clamp, room temperature
T1 construct: Chinese Hamster Ovary cell line stably expressing the full-length hERG potassium channel; expressed in transfected cells
Description: The compounds were tested for inhibition of the human ether a go-go related gene (hERG) K+ channel using QPatch HTX automated electrophysiology.
Compounds of Formula I were solubilised to 100 mM in DMSO before dilution in HBPS to 300 μM.
Electrophysiological recordings were made from a Chinese Hamster Ovary cell line stably expressing the full-length hERG potassium channel. Single cell ionic currents were measured in whole-cell patch clamp configuration at room temperature (21-23° C.) using the QPatch HTX platform (Sophion). Intracellular solution contained (mM): 120 KF, 20 KCl, 10 EGTA, 10 HEPES and was buffered to pH 7.3. […] Cells were clamped at a holding potential of −80 mV. Cells were stepped to +20 mV for 2 s then −40 mV for 3 s before returning to the holding potential. This sweep was repeated 10 times at 10 s intervals. hERG currents were measured from the tail step and referenced to the holding current. Compounds were then incubated for 2 minutes prior to a second measurement of ion channel current using an identical pulse train.

E. coli [ATCC25922] = test: Urinary Tract Infection Rat Model (kidneys, bladder); conditions: for MEAN ± SD (Log10 CFU/g kidneys) / MEAN ± SD (Log10 CFU/ml Bladder) / Mean Log10CFU/g kidney reduction (wrt 4 h PI control: 4.53 Log10CFU/g kidneys) / Mean Log10 CFU/ml Bladder reduction (wrt 4 h PI control: 5.72 CFU/ml Bladder) / Log10 CFU/g (Left Kidney) / Log10 CFU/g (Right Kidney) / Log10 CFU/ml Bladder: i.v., 1 h infusion; for Log10 CFU/g (Left Kidney) / Log10 CFU/g (Right Kidney) / Log10 CFU/ml Bladder: individual animals, 24 h post infection
[8] = Escherichia coli, E. coli clinical strains

E. coli topoisomerase IV, sequence (P20083 whole entry): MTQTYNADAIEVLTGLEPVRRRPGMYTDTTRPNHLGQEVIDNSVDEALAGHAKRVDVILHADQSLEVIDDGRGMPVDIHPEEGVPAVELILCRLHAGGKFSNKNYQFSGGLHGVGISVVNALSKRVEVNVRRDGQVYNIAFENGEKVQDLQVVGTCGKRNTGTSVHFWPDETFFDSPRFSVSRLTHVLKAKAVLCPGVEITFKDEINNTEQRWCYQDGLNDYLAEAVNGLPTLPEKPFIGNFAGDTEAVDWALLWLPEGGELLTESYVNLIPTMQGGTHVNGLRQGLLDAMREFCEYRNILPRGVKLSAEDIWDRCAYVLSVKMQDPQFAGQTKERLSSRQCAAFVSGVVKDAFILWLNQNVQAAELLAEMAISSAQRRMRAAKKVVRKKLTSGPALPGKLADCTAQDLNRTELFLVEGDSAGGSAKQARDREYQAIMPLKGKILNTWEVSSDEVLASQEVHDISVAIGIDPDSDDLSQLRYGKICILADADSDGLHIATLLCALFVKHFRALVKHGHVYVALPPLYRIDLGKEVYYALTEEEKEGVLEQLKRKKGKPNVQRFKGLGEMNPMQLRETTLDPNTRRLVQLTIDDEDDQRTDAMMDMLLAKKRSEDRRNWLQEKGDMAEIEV
E. coli topoisomerase IV, sequence (P0AFI2 whole entry): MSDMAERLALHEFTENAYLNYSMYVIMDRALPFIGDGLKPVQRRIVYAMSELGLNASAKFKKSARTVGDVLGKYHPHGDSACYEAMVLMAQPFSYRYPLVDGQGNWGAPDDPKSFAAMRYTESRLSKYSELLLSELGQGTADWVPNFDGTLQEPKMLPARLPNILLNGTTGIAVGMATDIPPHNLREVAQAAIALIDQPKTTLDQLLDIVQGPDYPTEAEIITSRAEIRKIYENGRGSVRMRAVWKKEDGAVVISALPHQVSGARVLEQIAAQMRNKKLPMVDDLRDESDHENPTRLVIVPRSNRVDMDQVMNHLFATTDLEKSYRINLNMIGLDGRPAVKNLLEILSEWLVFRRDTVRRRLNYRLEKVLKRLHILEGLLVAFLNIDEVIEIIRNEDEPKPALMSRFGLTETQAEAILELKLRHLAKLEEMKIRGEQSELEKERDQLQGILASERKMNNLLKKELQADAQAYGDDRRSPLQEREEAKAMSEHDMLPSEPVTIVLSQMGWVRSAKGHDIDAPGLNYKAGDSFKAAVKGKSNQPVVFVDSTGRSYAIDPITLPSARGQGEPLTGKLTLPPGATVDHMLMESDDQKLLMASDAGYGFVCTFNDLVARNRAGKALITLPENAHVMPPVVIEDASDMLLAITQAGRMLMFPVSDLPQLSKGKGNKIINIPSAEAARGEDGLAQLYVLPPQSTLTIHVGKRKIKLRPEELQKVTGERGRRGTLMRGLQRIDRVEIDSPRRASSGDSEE
T1 sequence (Q12809 whole entry): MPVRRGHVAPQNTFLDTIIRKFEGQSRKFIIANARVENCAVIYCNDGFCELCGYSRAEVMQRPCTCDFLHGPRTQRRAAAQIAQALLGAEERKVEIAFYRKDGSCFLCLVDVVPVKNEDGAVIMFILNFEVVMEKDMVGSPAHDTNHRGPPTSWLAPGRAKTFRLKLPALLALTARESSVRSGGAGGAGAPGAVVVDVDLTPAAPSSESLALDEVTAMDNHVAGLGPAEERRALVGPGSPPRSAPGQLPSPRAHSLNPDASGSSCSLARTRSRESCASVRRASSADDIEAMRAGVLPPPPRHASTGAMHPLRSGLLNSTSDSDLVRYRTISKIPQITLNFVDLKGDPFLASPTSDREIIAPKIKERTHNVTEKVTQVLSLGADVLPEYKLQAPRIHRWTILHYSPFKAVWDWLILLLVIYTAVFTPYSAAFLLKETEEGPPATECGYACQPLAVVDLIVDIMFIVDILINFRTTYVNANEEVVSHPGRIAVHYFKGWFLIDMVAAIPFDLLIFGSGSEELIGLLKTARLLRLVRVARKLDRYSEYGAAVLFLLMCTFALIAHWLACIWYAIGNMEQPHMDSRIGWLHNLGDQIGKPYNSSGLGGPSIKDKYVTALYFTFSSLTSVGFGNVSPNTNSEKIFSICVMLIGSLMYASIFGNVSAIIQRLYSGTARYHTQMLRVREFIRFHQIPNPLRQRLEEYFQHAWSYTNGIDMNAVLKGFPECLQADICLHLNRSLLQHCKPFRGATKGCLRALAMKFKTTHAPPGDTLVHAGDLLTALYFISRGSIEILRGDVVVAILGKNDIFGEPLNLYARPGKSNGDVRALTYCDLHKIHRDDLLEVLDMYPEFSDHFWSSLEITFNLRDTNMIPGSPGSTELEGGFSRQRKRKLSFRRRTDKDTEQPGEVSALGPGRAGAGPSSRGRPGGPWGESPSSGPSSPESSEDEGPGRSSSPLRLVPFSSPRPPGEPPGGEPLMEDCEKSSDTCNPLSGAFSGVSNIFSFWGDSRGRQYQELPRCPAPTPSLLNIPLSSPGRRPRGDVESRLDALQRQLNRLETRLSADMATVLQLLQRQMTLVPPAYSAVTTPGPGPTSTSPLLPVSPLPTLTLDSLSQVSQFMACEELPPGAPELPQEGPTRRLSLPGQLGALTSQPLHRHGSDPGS

Cn1c(=O)ccc2ccc(F)c(OCCNC[C@H]3CN(c4cnc5c(n4)NC(=O)CO5)C(=O)O3)c21 [Compound 2, (S)-6-(5-(((2-((7-fluoro-1-methyl-2-oxo-1,2-dihydroquinolin-8-yl)oxy)ethyl)amino)methyl)-2-oxooxazolidin-3-yl)-2H-pyrazino[2,3-b][1,4]oxazin-3(4H)-one]
IV formulation stable at room temperature [1]: more than 24 hours
MEAN ± SD (Log10 CFU/g thigh) ([2]; 3 mg/kg): 3.91 ± 0.04 Log10 CFU/g thigh
Mean Log 10 CFU/thigh reduction (wrt 2 h PI control: 5.04 Log10CFU/g thigh) ([2]; 3 mg/kg): 1.13 Log 10 CFU/thigh
Log10 CFU/g thigh ([2]; 3 mg/kg): 3.95 Log10 CFU/g thigh and 3.87 Log10 CFU/g thigh and 3.91 Log10 CFU/g thigh
MEAN ± SD (Log10 CFU/g thigh) ([2]; 10 mg/kg): 3.61 ± 0.31 Log10 CFU/g thigh
Mean Log 10 CFU/thigh reduction (wrt 2 h PI control: 5.04 Log10CFU/g thigh) ([2]; 10 mg/kg): 1.43 Log 10 CFU/thigh
Log10 CFU/g thigh ([2]; 10 mg/kg): 3.74 Log10 CFU/g thigh and 3.26 Log10 CFU/g thigh and 3.84 Log10 CFU/g thigh
efficacy with respect to 2 h Post Infection (PI) control (in words) ([2]; 3, 10 and 30 mg/kg, rat thigh K. pneumoniae): significant dose dependent bactericidal efficacy
MIC [3]: 0.125 µg/mL (≈ 0.258 µM)
MIC (E. faecalis ATCC 29212): 0.06 µg/mL (≈ 0.124 µM)
MIC [4]: 0.125 µg/mL (≈ 0.258 µM)
MIC50 ([5]; Pae clinical strains): 1 µg/mL (≈ 2.06 µM)
MIC90 ([5]; Pae clinical strains): 1 µg/mL (≈ 2.06 µM)
Minimum (MIC) ([5]; Pae clinical strains, MIC50/MIC90 in μg/ml): 0.031 µg/mL
MIC ATCC27853 ([5]; Pae reference strain ATCC27853, MIC50/MIC90 in μg/ml): 0.5 µg/mL (≈ 1.03 µM)
Minimum (MIC) (E. coli clinical strains; E. coli clinical strains, MIC50/MIC90 in μg/ml): 0.03 µg/mL
MIC ATCC25922 (E. coli clinical strains; E. coli reference strain ATCC25922, MIC50/MIC90 in μg/ml): 0.03 µg/mL (≈ 0.0619 µM)
MIC50 (E. coli clinical strains; [8]): 0.25 µg/mL (≈ 0.516 µM)
MIC90 (E. coli clinical strains; [8]): 0.25 µg/mL (≈ 0.516 µM)
MEAN ± SD (Log10 CFU/g Lung) ([6]; 3 mg/kg): 8.09 ± 0.14 Log10 CFU/g Lung
Mean Log 10 CFU/g lung reduction (wrt 4 h PI control: 6.52 Log10CFU/g lung) ([6]; 3 mg/kg): −1.57 Log 10 CFU/g lung
Log10 CFU/g Lung ([6]; 3 mg/kg): 7.99 Log10 CFU/g Lung and 8.02 Log10 CFU/g Lung and 8.26 Log10 CFU/g Lung
MEAN ± SD (Log10 CFU/g Lung) ([6]; 10 mg/kg): 6.93 ± 0.44 Log10 CFU/g Lung
Mean Log 10 CFU/g lung reduction (wrt 4 h PI control: 6.52 Log10CFU/g lung) ([6]; 10 mg/kg): −0.41 Log 10 CFU/g lung
Log10 CFU/g Lung ([6]; 10 mg/kg): 7.34 Log10 CFU/g Lung and 6.98 Log10 CFU/g Lung and 6.46 Log10 CFU/g Lung
efficacy with respect to early infection control (in words) ([6]; 30 mg/kg and 100 mg/kg doses): significant efficacy
MEAN ± SD (Log10 CFU/g Lung) ([6]; 30 mg/kg): 5.35 ± 0.25 Log10 CFU/g Lung
Mean Log 10 CFU/g lung reduction (wrt 4 h PI control: 6.52 Log10CFU/g lung) ([6]; 30 mg/kg): 1.17 Log 10 CFU/g lung
Log10 CFU/g Lung ([6]; 30 mg/kg): 5.30 Log10 CFU/g Lung and 5.63 Log10 CFU/g Lung and 5.14 Log10 CFU/g Lung
MEAN ± SD (Log10 CFU/g Lung) ([6]; 100 mg/kg): 3.1 ± 0.12 Log10 CFU/g Lung
Mean Log 10 CFU/g lung reduction (wrt 4 h PI control: 6.52 Log10CFU/g lung) ([6]; 100 mg/kg): 3.42 Log 10 CFU/g lung
Log10 CFU/g Lung ([6]; 100 mg/kg): 3.12 Log10 CFU/g Lung and 3.20 Log10 CFU/g Lung and 2.98 Log10 CFU/g Lung
IC50 (E. coli topoisomerase IV; gel based decatenation assay, read-out: E. coli Topo IV IC50): 45 nM
IC50 (E. coli topoisomerase IV; unit inferred, read-out: IC50 E. coli Topo IV): ≤ 50 nM
MIC90 [7]: 0.25 to 1 µg/mL (≈ 0.516 to 2.06 µM)
IC50 (hERG potassium channel): 124000 nM
effect when compared to the 4 h PI control (in words) (E. coli [ATCC25922]; 3 mg/kg): bacteriostatic
MEAN ± SD (Log10 CFU/g kidneys) (E. coli [ATCC25922]; 3 mg/kg): 5.13 ± 0.28 Log10 CFU/g kidneys
MEAN ± SD (Log10 CFU/ml Bladder) (E. coli [ATCC25922]; 3 mg/kg): 5.89 ± 0.4 Log10 CFU/ml Bladder
Mean Log10CFU/g kidney reduction (wrt 4 h PI control: 4.53 Log10CFU/g kidneys) (E. coli [ATCC25922]; 3 mg/kg): −0.60 Log10CFU/g kidney
Mean Log10 CFU/ml Bladder reduction (wrt 4 h PI control: 5.72 CFU/ml Bladder) (E. coli [ATCC25922]; 3 mg/kg): −0.17 Log10 CFU/ml Bladder
Log10 CFU/g (Left Kidney) (E. coli [ATCC25922]; 3 mg/kg): 5.39 Log10 CFU/g and 5.17 Log10 CFU/g and 5.24 Log10 CFU/g
Log10 CFU/g (Right Kidney) (E. coli [ATCC25922]; 3 mg/kg): 4.68 Log10 CFU/g and 4.90 Log10 CFU/g and 5.39 Log10 CFU/g
Log10 CFU/ml Bladder (E. coli [ATCC25922]; 3 mg/kg): 5.43 Log10 CFU/ml Bladder and 6.16 Log10 CFU/ml Bladder and 6.08 Log10 CFU/ml Bladder
MEAN ± SD (Log10 CFU/g kidneys) (E. coli [ATCC25922]; 10 mg/kg): 3.95 ± 0.33 Log10 CFU/g kidneys
MEAN ± SD (Log10 CFU/ml Bladder) (E. coli [ATCC25922]; 10 mg/kg): 4.8 ± 0.2 Log10 CFU/ml Bladder
Mean Log10CFU/g kidney reduction (wrt 4 h PI control: 4.53 Log10CFU/g kidneys) (E. coli [ATCC25922]; 10 mg/kg): 0.58 Log10CFU/g kidney
Mean Log10 CFU/ml Bladder reduction (wrt 4 h PI control: 5.72 CFU/ml Bladder) (E. coli [ATCC25922]; 10 mg/kg): 0.92 Log10 CFU/ml Bladder
Log10 CFU/g (Left Kidney) (E. coli [ATCC25922]; 10 mg/kg): 4.12 Log10 CFU/g and 3.78 Log10 CFU/g and 4.46 Log10 CFU/g
Log10 CFU/g (Right Kidney) (E. coli [ATCC25922]; 10 mg/kg): 4.11 Log10 CFU/g and 3.65 Log10 CFU/g and 3.61 Log10 CFU/g
Log10 CFU/ml Bladder (E. coli [ATCC25922]; 10 mg/kg): 5.02 Log10 CFU/ml Bladder and 4.61 Log10 CFU/ml Bladder and 4.76 Log10 CFU/ml Bladder
MEAN ± SD (Log10 CFU/g kidneys) (E. coli [ATCC25922]; 30 mg/kg): 2.91 ± 0.31 Log10 CFU/g kidneys
MEAN ± SD (Log10 CFU/ml Bladder) (E. coli [ATCC25922]; 30 mg/kg): 3.89 ± 0.3 Log10 CFU/ml Bladder
Mean Log10CFU/g kidney reduction (wrt 4 h PI control: 4.53 Log10CFU/g kidneys) (E. coli [ATCC25922]; 30 mg/kg): 1.62 Log10CFU/g kidney
Mean Log10 CFU/ml Bladder reduction (wrt 4 h PI control: 5.72 CFU/ml Bladder) (E. coli [ATCC25922]; 30 mg/kg): 1.83 Log10 CFU/ml Bladder
Log10 CFU/g (Left Kidney) (E. coli [ATCC25922]; 30 mg/kg): 3.22 Log10 CFU/g and 3.36 Log10 CFU/g and 2.80 Log10 CFU/g
Log10 CFU/g (Right Kidney) (E. coli [ATCC25922]; 30 mg/kg): 2.77 Log10 CFU/g and 2.75 Log10 CFU/g and 2.55 Log10 CFU/g
Log10 CFU/ml Bladder (E. coli [ATCC25922]; 30 mg/kg): 4.19 Log10 CFU/ml Bladder and 3.90 Log10 CFU/ml Bladder and 3.58 Log10 CFU/ml Bladder
effect with respect to 4 h PI control (in words) (E. coli [ATCC25922]; 10 and 30 mg/kg): significant dose dependent bactericidal effect
